Patent US20170182033A1, “PHARMACEUTICAL COMPOSITIONS FOR EXTENDED RELEASE OF OXYCODONE AND ACETAMINOPHEN RESULTING IN A QUICK ONSET AND PROLONGED PERIOD OF ANALGESIA” (priority 2011, published 2017)

How the values were obtained:
[1] = Ethanol release testing at 100 rpm paddle speed (Example 29); type: physicochemical; details: release from the formulation
hepatic GSH = details: mice; 100 mg/kg to 600 mg/kg; cited from earlier work

CC(=O)Nc1ccc(O)cc1 [acetaminophen]
Percent Release, Mean ([1]; 0% Ethanol, 15 Min): 52.2% | Percent Release, Mean ([1]; 0% Ethanol, 30 Min): 54.6% | Percent Release, Mean ([1]; 0% Ethanol, 45 Min): 56.8% | Percent Release, Mean ([1]; 0% Ethanol, 60 Min): 58.8% | Percent Release, Mean ([1]; 0% Ethanol, 75 Min): 60.8% | Percent Release, Mean ([1]; 0% Ethanol, 90 Min): 62.6% | Percent Release, Mean ([1]; 0% Ethanol, 105 Min): 64.3% | Percent Release, Mean ([1]; 0% Ethanol, 120 Min): 66.0% | Percent Release, Mean ([1]; 0% Ethanol, 240 Min): 78.6% | Percent Release, Mean ([1]; 0% Ethanol, 480 Min): 95.5% | Percent Release, Mean ([1]; 5% Ethanol, 15 Min): 52.6% | Percent Release, Mean ([1]; 5% Ethanol, 30 Min): 55.1% | Percent Release, Mean ([1]; 5% Ethanol, 45 Min): 57.1% | Percent Release, Mean ([1]; 5% Ethanol, 60 Min): 58.9% | Percent Release, Mean ([1]; 5% Ethanol, 75 Min): 60.7% | Percent Release, Mean ([1]; 5% Ethanol, 90 Min): 62.3% | Percent Release, Mean ([1]; 5% Ethanol, 105 Min): 63.9% | Percent Release, Mean ([1]; 5% Ethanol, 120 Min): 65.5% | Percent Release, Mean ([1]; 5% Ethanol, 240 Min): 77.2% | Percent Release, Mean ([1]; 5% Ethanol, 480 Min): 94.4% | Percent Release, Mean ([1]; 10% Ethanol, 15 Min): 51.7% | Percent Release, Mean ([1]; 10% Ethanol, 30 Min): 54.1% | Percent Release, Mean ([1]; 10% Ethanol, 45 Min): 56.0% | Percent Release, Mean ([1]; 10% Ethanol, 60 Min): 57.8% | Percent Release, Mean ([1]; 10% Ethanol, 75 Min): 59.5% | Percent Release, Mean ([1]; 10% Ethanol, 90 Min): 61.1% | Percent Release, Mean ([1]; 10% Ethanol, 105 Min): 62.6% | Percent Release, Mean ([1]; 10% Ethanol, 120 Min): 64.1% | Percent Release, Mean ([1]; 10% Ethanol, 240 Min): 75.5% | Percent Release, Mean ([1]; 10% Ethanol, 480 Min): 93.5% | Percent Release, Mean ([1]; 20% Ethanol, 15 Min): 50.2% | Percent Release, Mean ([1]; 20% Ethanol, 30 Min): 53.4% | Percent Release, Mean ([1]; 20% Ethanol, 45 Min): 55.5% | Percent Release, Mean ([1]; 20% Ethanol, 60 Min): 57.3% | Percent Release, Mean ([1]; 20% Ethanol, 75 Min): 59.0% | Percent Release, Mean ([1]; 20% Ethanol, 90 Min): 60.5% | Percent Release, Mean ([1]; 20% Ethanol, 105 Min): 61.9% | Percent Release, Mean ([1]; 20% Ethanol, 120 Min): 63.3% | Percent Release, Mean ([1]; 20% Ethanol, 240 Min): 76.0% | Percent Release, Mean ([1]; 20% Ethanol, 480 Min): 91.9% | Percent Release, Mean ([1]; 40% Ethanol, 15 Min): 16.7% | Percent Release, Mean ([1]; 40% Ethanol, 30 Min): 30.4% | Percent Release, Mean ([1]; 40% Ethanol, 45 Min): 38.5% | Percent Release, Mean ([1]; 40% Ethanol, 60 Min): 43.1% | Percent Release, Mean ([1]; 40% Ethanol, 75 Min): 46.1% | Percent Release, Mean ([1]; 40% Ethanol, 90 Min): 48.3% | Percent Release, Mean ([1]; 40% Ethanol, 105 Min): 49.8% | Percent Release, Mean ([1]; 40% Ethanol, 120 Min): 51.1% | Percent Release, Mean ([1]; 40% Ethanol, 240 Min): 60.8% | Percent Release, Mean ([1]; 40% Ethanol, 480 Min): 77.2% | Onset of circulating hepatic GSH changes after administration (hepatic GSH): ≤ 15 min
